Legend:
Veronica persica [1] = test: Pre-emergence herbicidal action, greenhouse, 320 g/ha; assay type: in vivo; details: application rate 320 g/ha, Table B13
How it was run: (§1)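 Visual % damage versus untreated pots was read about 3 weeks after treatment, where 0% means growth as in controls and 100% means dead plants. Compounds were applied as WP or EC in water plus 0.5% additive onto the covering soil over freshly sown seeds.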

Abutilon theophrasti [2] = test: as above; assay type: in vivo; details: application rate 320 g/ha, scored visually after about 3 weeks vs untreated controls
How it was run: as §1

Viola tricolor [3] = test: as above; assay type: in vivo; details: application rate 320 g/ha, Table B8
How it was run: as §1

Pharbitis purpurea [4] = test: as above; assay type: in vivo; details: application rate 320 g/ha, Table B12
How it was run: as §1

Polygonum convolvulus [5] = test: as above; assay type: in vivo; details: application rate 320 g/ha, scored visually after about 3 weeks vs untreated controls
How it was run: as §1

Hordeum murinum [6] = test: as above; assay type: in vivo; details: application rate 320 g/ha, Table B14
How it was run: as §1

Amaranthus retroflexus [7] = test: as above; assay type: in vivo; details: application rate 320 g/ha, scored visually after about 3 weeks vs untreated controls
How it was run: as §1

Stellaria media [8] = test: as above; assay type: in vivo; details: application rate 320 g/ha, scored visually after about 3 weeks vs untreated controls
How it was run: as §1

Setaria viridis [9] = test: as above; assay type: in vivo; details: application rate 320 g/ha, Table B11
How it was run: as §1

Alopecurus myosuroides [10] = test: as above; assay type: in vivo; details: application rate 320 g/ha, scored visually after about 3 weeks vs untreated controls
How it was run: as §1

Matricaria inodora [11] = test: as above; assay type: in vivo; details: application rate 320 g/ha, scored visually after about 3 weeks vs untreated controls
How it was run: as §1

photosystem II (PS II) = target: T1, photosystem II (PS II) (Spinacia oleracea, UniProt P69560); test: Measurement of PS II activity in thylakoid membranes (DCPIP reduction); assay type: biochemical, spinach; details: PS II activity in spinach thylakoid membranes, Table E1; read-out: Effect
T1 construct: the chloroplasts were osmotically ruptured and the thylakoid membranes were then obtained by centrifugation; from tissue; host or cells: fresh spinach leaves; thylakoid membrane preparation from isolated chloroplasts
How it was run: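 Thylakoid membranes from osmotically ruptured spinach chloroplasts in 50 mM phosphate pH 6.8, 10 mM KCl; compounds added from 100 μM DMSO solution (2.5% DMSO final), 120 μM DCPIP final. DCPIP reduction under light tracked as absorbance decrease at 595 nm over 10 min at 22 °C; % inhibition binned, metribuzin as plate standard.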

Abutilon theophrasti [12] = test: Post-emergence herbicidal action, greenhouse, 320 g/ha; assay type: in vivo; details: application rate 320 g/ha, rated visually after about 3 weeks vs untreated controls
How it was run: (§2)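 Plants treated post-emergence at the one-leaf stage, 2 to 3 weeks after sowing in sandy loam, with WP or EC formulations plus 0.5% additive at 320 g/ha. Visual rating about 3 weeks later versus untreated controls (100% = dead, 0% = like control).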

Viola tricolor [13] = test: as above; assay type: in vivo; details: application rate 320 g/ha, rated visually after about 3 weeks vs untreated controls
How it was run: as §2

Pharbitis purpurea [14] = test: as above; assay type: in vivo; details: application rate 320 g/ha, rated visually after about 3 weeks vs untreated controls
How it was run: as §2

Polygonum convolvulus [15] = test: as above; assay type: in vivo; details: application rate 320 g/ha, rated visually after about 3 weeks vs untreated controls
How it was run: as §2

Amaranthus retroflexus [16] = test: as above; assay type: in vivo; details: application rate 320 g/ha, rated visually after about 3 weeks vs untreated controls
How it was run: as §2

Stellaria media [17] = test: as above; assay type: in vivo; details: application rate 320 g/ha, rated visually after about 3 weeks vs untreated controls
How it was run: as §2

Echinochloa crus-galli [18] = test: as above; assay type: in vivo; details: application rate 320 g/ha, rated visually after about 3 weeks vs untreated controls
How it was run: as §2

Setaria viridis [19] = test: as above; assay type: in vivo; details: application rate 320 g/ha, rated visually after about 3 weeks vs untreated controls
How it was run: as §2

Alopecurus myosuroides [20] = test: as above; assay type: in vivo; details: application rate 320 g/ha, rated visually after about 3 weeks vs untreated controls
How it was run: as §2

Echinochloa crus-galli [21] = test: Pre-emergence herbicidal action, greenhouse, 320 g/ha; assay type: in vivo; details: application rate 320 g/ha, scored visually after about 3 weeks vs untreated controls
How it was run: as §1

Avena fatua = test: as above; assay type: in vivo; details: application rate 320 g/ha, scored visually after about 3 weeks vs untreated controls
How it was run: as §1

Veronica persica [22] = test: Post-emergence herbicidal action, greenhouse, 320 g/ha; assay type: in vivo; details: application rate 320 g/ha, rated visually after about 3 weeks vs untreated controls
How it was run: as §2

Hordeum murinum [23] = test: as above; assay type: in vivo; details: application rate 320 g/ha, rated visually after about 3 weeks vs untreated controls
How it was run: as §2

Lolium rigidum = test: as above; assay type: in vivo; details: application rate 320 g/ha, rated visually after about 3 weeks vs untreated controls
How it was run: as §2

Matricaria inodora [24] = test: as above; assay type: in vivo; details: application rate 320 g/ha, rated visually after about 3 weeks vs untreated controls
How it was run: as §2

inhibition at 100 µM (photosystem II (PS II)) | SMILES | Veronica persica (efficacy in %) (Veronica persica [1]) | Abutilon theophrasti (efficacy in %) (Abutilon theophrasti [2]) | Viola tricolor (efficacy in %) (Viola tricolor [3]) | Pharbitis purpurea (efficacy in %) (Pharbitis purpurea [4]) | Polygonum convolvulus (efficacy in %) (Polygonum convolvulus [5]) | Hordeum murinum (efficacy in %) (Hordeum murinum [6]) | Amaranthus retroflexus (efficacy in %) (Amaranthus retroflexus [7]) | Stellaria media (efficacy in %) (Stellaria media [8]) | Setaria viridis (efficacy in %) (Setaria viridis [9]) | Alopecurus myosuroides (efficacy in %) (Alopecurus myosuroides [10]) | Matricaria inodora (efficacy in %) (Matricaria inodora [11]) | Abutilon theophrasti (efficacy in %) (Abutilon theophrasti [12]) | Viola tricolor (efficacy in %) (Viola tricolor [13]) | Pharbitis purpurea (efficacy in %) (Pharbitis purpurea [14]) | Polygonum convolvulus (efficacy in %) (Polygonum convolvulus [15]) | Amaranthus retroflexus (efficacy in %) (Amaranthus retroflexus [16]) | Stellaria media (efficacy in %) (Stellaria media [17]) | Setaria viridis (efficacy in %) (Setaria viridis [19]) | other results
70 to 90% | CC(=O)OC1CCN(C)C(=O)N1c1cc(C(C)(C)C)on1 (stereo not shown) [I.2-162, 3-(5-tert-Butyl-1,2-oxazol-3-yl)-1-methyl-2-oxohexahydropyrimidin-4-yl Acetate] | 90% | 100% | 100% | 100% | 100% | 80% | 100% | 100% | 90% | 90% | 100% | 100% | 100% | 100% | 100% | 100% | 100% | 100% | Echinochloa crus-galli (efficacy in %) (Echinochloa crus-galli [18]): 80%; Alopecurus myosuroides (efficacy in %) (Alopecurus myosuroides [20]): 80%
50 to 70% | CCC(=O)OC1CCN(C)C(=O)N1c1cc(C(C)(C)C)on1 (stereo not shown) [I.3-162, 3-(5-tert-Butyl-1,2-oxazol-3-yl)-1-methyl-2-oxohexahydropyrimidin-4-yl Propionate] | 100% | 100% | 100% | 100% | 100% | 90% | 100% | 90% | 100% | 80% | 100% | 100% | 100% | 100% | 100% | 100% | 100% | 90% | Echinochloa crus-galli (efficacy in %) (Echinochloa crus-galli [21]): 80%; Avena fatua (efficacy in %) (Avena fatua): 100%; Veronica persica (efficacy in %) (Veronica persica [22]): 90%; Hordeum murinum (efficacy in %) (Hordeum murinum [23]): 90%; Lolium rigidum (efficacy in %) (Lolium rigidum): 80%; Matricaria inodora (efficacy in %) (Matricaria inodora [24]): 100%
